Experimental data as given in US7803930B2, “Antisense modulation of apolipoprotein B-expression” (Isis Pharmaceuticals, Inc., priority 2002, dated 2010).
In the oligonucleotide strings, read from the 5' end, every base follows the letter of its sugar. An asterisk marks phosphorothioate; unmarked linkages are phosphodiester. Other units and linkages are bracketed, terminal groups are in braces. A string of capitals states the bases alone. e = 2'-O-(2-methoxyethyl) (MOE); [5mC] = 5-methylcytosine; d = 2'-deoxy (DNA)

Test system: human apolipoprotein B mRNA
Experiment: Inhibition of human apolipoprotein B mRNA levels in HepG2 cells, quantitative real-time PCR
Format: cell-based
Details: for % INHIB (inhibition of human apolipoprotein B mRNA levels): HepG2 cells treated with 150 nM of compound, quantitative real-time PCR; for Percent Inhibition 50 nM / Percent Inhibition 150 nM / Percent Inhibition 250 nM: Table 2
Outline: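 Apolipoprotein B transcript was quantified by one-step TaqMan RT-PCR, normalized to GAPDH or RiboGreen RNA, and expressed as percent inhibition against an untreated-sample standard curve. HepG2 cells were harvested 16-24 h after oligonucleotide exposure, which was delivered with 3.75 μg/mL Lipofectin over 4-7 h at 80% confluency.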

[1] = HepG2 cells, human apolipoprotein B mRNA, oligonucleotides targeting genomic sequence SEQ ID NO 334, averages from two experiments
[2] = Table 1, HepG2 cells, 150 nM, averages from two experiments
[3] = Table 15, HepG2 cells, 150 nM, averages from two experiments
[4] = Table 11 gene walk, HepG2 cells, averages from two experiments
[5] = Table 11 gene walk, HepG2 cells, 150 nM, averages from two experiments

## 301215 (antisense eT*eA*eT*eA*eG*dT*dA*d[5mC]*dA*d[5mC]*dT*dA*dA*dA*dA*e[5mC]*eT*eT*e[5mC]*eA) [compound 301215]
[1]
  % INHIB: 1%

## 301102 (antisense eT*e[5mC]*e[5mC]*eA*eG*dA*d[5mC]*dT*dT*dG*dT*d[5mC]*dT*dG*dA*eG*eT*e[5mC]*eT*eA) [compound 301102]
[1]
  % INHIB: 47%

## 281646 (eT*e[5mC]*e[5mC]*e[5mC]*eG*dG*dA*d[5mC]*d[5mC]*d[5mC]*dT*d[5mC]*dA*dA*d[5mC]*eT*e[5mC]*eA*eG*eT; antisense) [compound 281646]
Averages from two experiments
  % INHIB (inhibition of human apolipoprotein B mRNA levels): 76%

## 147806 (antisense eA*eT*eG*eT*eG*dG*dT*dA*dA*d[5mC]*dG*dA*dG*d[5mC]*d[5mC]*e[5mC]*eG*eA*eA*eG) [compound 147806]
[2]
  % INHIB: 100%
HepG2 cells
  Percent Inhibition 50 nM: 23%
  Percent Inhibition 250 nM: 28%
HepG2 cells, 150 nM
  Percent Inhibition 150 nM: 45%

## 301126 (eG*eG*e[5mC]*eT*eA*dA*dT*dA*dA*dA*dT*dA*dG*dG*dG*eT*eA*eG*eT*eT; antisense) [compound 301126]
[1]
  % INHIB: 22%

## 301161 (eA*eT*eG*e[5mC]*eA*dT*dT*d[5mC]*d[5mC]*d[5mC]*dT*dG*dA*d[5mC]*dT*eA*eG*e[5mC]*eA*e[5mC]; antisense) [compound 301161]
[1]
  % INHIB: 34%

## 147816 (antisense eT*e[5mC]*eA*eT*eA*d[5mC]*dG*dT*dT*dT*dA*dG*d[5mC]*d[5mC]*d[5mC]*eA*eA*eT*e[5mC]*eT) [compound 147816]
[2]
  % INHIB: 100%
HepG2 cells
  Percent Inhibition 50 nM: 25%
  Percent Inhibition 250 nM: 65%
HepG2 cells, 150 nM
  Percent Inhibition 150 nM: 81%

## 301223 (antisense eA*eA*eT*e[5mC]*eA*d[5mC]*dA*d[5mC]*dT*dA*dT*dG*dT*dG*dT*eT*e[5mC]*eT*eA*eG) [compound 301223]
[3]
  % INHIB: 26%

## 308607 (eA*eT*eT*eT*eG*dA*dA*dT*dG*dT*d[5mC]*dA*dT*dG*dG*eT*eA*eG*e[5mC]*e[5mC]; antisense) [compound 308607]
[4]
  % INHIB 50 nm: 9%
[5]
  % INHIB 150 nm: 77%

## 301118 (antisense eA*eT*eG*eT*eG*d[5mC]*dA*d[5mC]*dA*d[5mC]*dA*dA*dG*dG*dA*e[5mC]*eA*eT*eA*eG) [compound 301118]
[1]
  % INHIB: 33%

## 308601 (antisense eT*eG*eG*eT*eA*dG*d[5mC]*d[5mC]*dT*d[5mC]*dA*dG*dT*d[5mC]*dT*eG*e[5mC]*eT*eT*e[5mC]) [compound 308601]
[4]
  % INHIB 50 nm: 63%
[5]
  % INHIB 150 nm: 91%

## 301036 (eT*eT*eT*eG*eG*dT*dG*d[5mC]*dA*dG*dG*dT*d[5mC]*d[5mC]*dA*eG*eT*eT*e[5mC]*eA; antisense) [compound 301036]
Averages from two experiments
  % INHIB (inhibition of human apolipoprotein B mRNA levels): 88%
Table 19 dose response, HepG2 cells, 37 nM, normalized to untreated control
  % inhibition 37 nM: 67%
Table 19 dose response, HepG2 cells, 75 nM, normalized to untreated control
  % inhibition 75 nM: 83%
Table 19 dose response, HepG2 cells, 150 nM, normalized to untreated control
  % inhibition 150 nM: 92%
Table 19 dose response, HepG2 cells, 300 nM, normalized to untreated control
  % inhibition 300 nM: 95%

## 147831 (antisense e[5mC]*eT*eG*e[5mC]*e[5mC]*dT*dA*d[5mC]*dT*dG*d[5mC]*dA*dA*dG*dG*e[5mC]*eT*eG*eG*e[5mC]) [compound 147831]
[2]
  % INHIB: 0%

## 271050 (e[5mC]*e[5mC]*eT*eG*eG*dA*dG*d[5mC]*dA*dA*dG*d[5mC]*dT*dT*d[5mC]*eA*eT*eG*eT*eA; antisense) [compound 271050]
Averages from two experiments
  % INHIB (inhibition of human apolipoprotein B mRNA levels): 42%

## 308610 (eA*e[5mC]*e[5mC]*eA*eG*d[5mC]*d[5mC]*dA*d[5mC]*dA*dT*dG*d[5mC]*dA*dG*e[5mC]*eT*eT*e[5mC]*eA; antisense) [compound 308610]
[4]
  % INHIB 50 nm: 40%
[5]
  % INHIB 150 nm: 90%

## 308657 (antisense GCCTCAGTCTGCTTCGCGCC; 9-10-1 2'-MOE gapmer, phosphorothioate, chemistry not fully specified) [compound 308657]
Table 17 variable gap, HepG2 cells, averages from three experiments
  % INHIB 50 nm: 61%
Table 17 variable gap, HepG2 cells, 150 nM, averages from three experiments
  % INHIB 150 nm: 78%

## 308618 (eA*eG*eG*e[5mC]*eT*d[5mC]*d[5mC]*dT*dT*dT*dT*dA*dG*dG*dT*eT*eA*e[5mC]*e[5mC]*eA; antisense) [compound 308618]
[4]
  % INHIB 50 nm: 61%
[5]
  % INHIB 150 nm: 77%

## 308599 (antisense eA*eG*e[5mC]*e[5mC]*eT*d[5mC]*dA*dG*dT*d[5mC]*dT*dG*d[5mC]*dT*dT*e[5mC]*eG*e[5mC]*eA*e[5mC]) [compound 308599]
[4]
  % INHIB 50 nm: 79%
[5]
  % INHIB 150 nm: 94%

## 270999 (antisense eG*eT*eT*eG*eA*d[5mC]*d[5mC]*dG*d[5mC]*dG*dT*dG*dG*d[5mC]*dT*e[5mC]*eA*eG*e[5mC]*eG) [compound 270999]
Averages from two experiments
  % INHIB (inhibition of human apolipoprotein B mRNA levels): 76%

## 308613 (eT*eA*eG*eG*eT*dT*dA*d[5mC]*d[5mC]*dA*dG*d[5mC]*d[5mC]*dA*d[5mC]*eA*eT*eG*e[5mC]*eA; antisense) [compound 308613]
[4]
  % INHIB 50 nm: 43%
[5]
  % INHIB 150 nm: 87%

## 301111 (antisense eT*eG*eA*eA*eG*dG*dG*dT*dA*dG*dA*dG*dA*dA*dA*eT*e[5mC]*eA*eT*eA) [compound 301111]
[1]
  % INHIB: 9%

## 147782 (antisense eG*e[5mC]*e[5mC]*eT*e[5mC]*dG*dG*d[5mC]*d[5mC]*dT*d[5mC]*dG*d[5mC]*dG*dG*e[5mC]*e[5mC]*e[5mC]*eT*eG) [compound 147782]
[2]
  % INHIB: 67%

## 301089 (antisense eG*eA*eA*eG*eG*dT*d[5mC]*d[5mC]*dA*dT*dG*dG*dT*dT*d[5mC]*eA*eT*e[5mC]*eT*eG) [compound 301089]
[1]
  % INHIB: 0%

## 271000 (antisense eG*e[5mC]*eA*eG*e[5mC]*dT*d[5mC]*d[5mC]*dT*dG*dG*dG*dT*d[5mC]*d[5mC]*e[5mC]*eT*eG*eT*eA) [compound 271000]
Averages from two experiments
  % INHIB (inhibition of human apolipoprotein B mRNA levels): 22%

## 271045 (eG*eT*e[5mC]*eA*eA*d[5mC]*dA*dG*dT*dT*d[5mC]*d[5mC]*dT*dG*dG*eT*eA*e[5mC]*eA*eG; antisense) [compound 271045]
Averages from two experiments
  % INHIB (inhibition of human apolipoprotein B mRNA levels): 19%

## 270988 (antisense eG*eG*eG*eT*eT*dG*dA*dA*dG*d[5mC]*d[5mC]*dA*dT*dA*d[5mC]*eA*e[5mC]*e[5mC]*eT*e[5mC]) [compound 270988]
Averages from two experiments
  % INHIB (inhibition of human apolipoprotein B mRNA levels): 6%

## 271046 (e[5mC]*e[5mC]*e[5mC]*eT*eA*dG*dT*dG*dT*dA*dT*dA*dT*d[5mC]*d[5mC]*e[5mC]*eA*eG*eG*eT; antisense) [compound 271046]
Averages from two experiments
  % INHIB (inhibition of human apolipoprotein B mRNA levels): 61%

## 301212 (antisense eT*eT*eG*eA*eT*dG*dT*dA*dT*d[5mC]*dT*d[5mC]*dA*dT*d[5mC]*eT*eA*eG*e[5mC]*eA) [compound 301212]
[1]
  % INHIB: 41%

## 281589 (eT*e[5mC]*eA*eG*e[5mC]*dA*dA*dG*dG*d[5mC]*dT*dT*dT*dG*d[5mC]*e[5mC]*e[5mC]*eT*e[5mC]*eA; antisense) [compound 281589]
Averages from two experiments
  % INHIB (inhibition of human apolipoprotein B mRNA levels): 90%

## 301047 (eT*e[5mC]*e[5mC]*e[5mC]*e[5mC]*d[5mC]*dA*dA*dG*dT*dT*dT*dA*dG*d[5mC]*eA*eA*eA*eA*eT; antisense) [compound 301047]
Averages from two experiments
  % INHIB (inhibition of human apolipoprotein B mRNA levels): 56%

## 301185 (antisense eT*eG*e[5mC]*eT*eT*d[5mC]*dG*d[5mC]*dA*d[5mC]*d[5mC]*dT*dG*dG*dA*e[5mC]*eG*eA*eG*eT) [compound 301185]
[1]
  % INHIB: 51%

## 281635 (antisense eA*eT*eA*e[5mC]*eA*d[5mC]*dT*dG*d[5mC]*dA*dA*d[5mC]*dT*dG*dT*eG*eG*e[5mC]*e[5mC]*eT) [compound 281635]
Averages from two experiments
  % INHIB (inhibition of human apolipoprotein B mRNA levels): 89%

## 301081 (eG*eA*eG*eT*eG*dT*dG*dG*dT*d[5mC]*dT*dT*dG*d[5mC]*dT*eA*eG*eT*eG*e[5mC]; antisense) [compound 301081]
[1]
  % INHIB: 46%

## 301051 (eG*eA*eT*eG*e[5mC]*d[5mC]*dT*dT*dA*d[5mC]*dT*dT*dG*dG*dA*e[5mC]*eA*eG*eA*e[5mC]; antisense) [compound 301051]
[1]
  % INHIB: 27%

## 281610 (antisense e[5mC]*eA*eG*e[5mC]*eT*d[5mC]*dT*dA*dA*dT*d[5mC]*dT*dG*dG*dT*eG*eT*e[5mC]*e[5mC]*e[5mC]) [compound 281610]
Averages from two experiments
  % INHIB (inhibition of human apolipoprotein B mRNA levels): 69%

## 271041 (e[5mC]*e[5mC]*eA*eT*eA*dT*d[5mC]*d[5mC]*dA*dT*dG*d[5mC]*d[5mC]*d[5mC]*dA*e[5mC]*eG*eG*eT*eG; antisense) [compound 271041]
Averages from two experiments
  % INHIB (inhibition of human apolipoprotein B mRNA levels): 37%

## 301224 (antisense eA*eA*eA*eT*e[5mC]*dA*d[5mC]*dA*d[5mC]*dT*dA*dT*dG*dT*dG*eT*eT*e[5mC]*eT*eA) [compound 301224]
[3]
  % INHIB: 33%

## 301122 (e[5mC]*eT*eG*eA*eG*dA*dT*dT*dA*d[5mC]*d[5mC]*d[5mC]*dG*d[5mC]*dA*eG*eA*eA*eT*e[5mC]; antisense) [compound 301122]
[1]
  % INHIB: 32%

## 301098 (antisense eA*e[5mC]*eT*eA*eG*dA*dG*dG*dT*dA*dG*d[5mC]*d[5mC]*dA*dG*eA*eA*e[5mC]*eA*e[5mC]) [compound 301098]
[1]
  % INHIB: 34%

## 301096 (antisense eA*eT*eA*e[5mC]*eT*dT*dA*dT*dT*d[5mC]*d[5mC]*dT*dG*dG*dT*eA*eA*e[5mC]*e[5mC]*eA) [compound 301096]
[1]
  % INHIB: 24%

## 147829 (antisense eT*eA*eT*eA*eT*d[5mC]*d[5mC]*d[5mC]*dA*dG*dG*dT*dT*dT*d[5mC]*e[5mC]*e[5mC]*e[5mC]*eG*eG) [compound 147829]
[2]
  % INHIB: 64%
